The source of these data is the NIST ThermoML archive (doi:10.1021/je0495942).

This data set in a line: activity coefficient (dimensionless); of the first substance listed, at infinite dilution; xn = mol fraction of the nth substance listed. Particulars: 101.33 kPa, Liquid, Chromatography, x1 = 0.

Several values for one entry are separate records, joined by “and”; a condition that tells them apart may be missing. Equal entries are not always repeated. Numbers after ± are expanded uncertainties.

As for `CC(=O)C(C)=O` [2,3-butanedione] + O, the activity coefficient (298.1 K) was 13.3 and 13.2; the activity coefficient (298.17 K) is 13.2 and 13.1.
As for `CCCCC(C)=O` [2-hexanone] + O, the activity coefficient turned out to be 319 ± 14 (297.85 K) and 265 ± 12 (298.15 K).
As for `CSC` [2-thiapropane] + O, the activity coefficient is, setting by setting: (298.01 K) 175 and 173 and 171; (298.02 K) 184 and 185; (298.03 K) 170 and 173; (298.07 K) 178 ± 12.
For `CC(C)=O` [acetone] + O, the activity coefficient is, setting by setting: (298.01 K) 7.62 and 7.68; (298.03 K) 7.64 and 7.7; (298.04 K) 7.68 and 7.74; (298.17 K) 7.7 ± 0.34.
`CCC(C)=O` [butanone] + O: the activity coefficient (297.85 K) was determined as 25.8 ± 1.1 and the activity coefficient (298.15 K) came to 26.1 ± 1.2.
`CC=O` [ethanal] + O: the activity coefficient runs as follows: (298.13 K) 4.13 [middle of 4 runs]; (298.15 K) 4.14 ± 0.19.
In the case of `CCO` [ethanol] + O, the activity coefficient (298.15 K) came out at 3.77 ± 0.17.
For the compound `CCCC(C)=O` [pentan-2-one] + O, the activity coefficient (297.85 K) turned out to be 129 ± 6 and the activity coefficient (298.15 K) amounted to 148 ± 7.
On to `CCCO` [propan-1-ol] + O, for which the activity coefficient reads like this: (298.01 K) 13.4 ± 0.6; (298.03 K) 13.3 ± 0.6; (298.04 K) 13.3 ± 0.6; (298.1 K) 13.4 and 13.3.
